Measured values reported in US9266908B2, “Inhibitors of arginase and their therapeutic applications” (MARS, INCORPORATED, priority 2011, dated 2016).
One block for each molecule: values may come before it.

Tests used:
[1] = test system: experimental autoimmune encephalomyelitis (EAE); conditions: animals undergoing EAE; cited from earlier work
[2] = molecular target: T1, human arginase I (ARG I) (Homo sapiens, UniProt P05089); assay: Inhibition of arginase I, spectrophotometric urea assay at 530 nm
T1 sequence (P05089 1-322): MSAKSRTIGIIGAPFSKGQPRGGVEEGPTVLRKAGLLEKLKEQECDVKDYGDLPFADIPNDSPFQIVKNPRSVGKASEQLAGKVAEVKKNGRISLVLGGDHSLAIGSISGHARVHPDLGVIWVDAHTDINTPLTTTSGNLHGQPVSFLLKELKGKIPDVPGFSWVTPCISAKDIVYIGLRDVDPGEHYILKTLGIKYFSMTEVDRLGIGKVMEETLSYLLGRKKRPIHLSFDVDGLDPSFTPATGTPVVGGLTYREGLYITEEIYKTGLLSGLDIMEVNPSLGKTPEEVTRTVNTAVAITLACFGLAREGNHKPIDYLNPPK
Description: (§1) Inhibition of arginase I (ARG I) and arginase II (ARG II) by the inventive compounds is followed spectrophotometrically at 530 nm. […] Solutions of arginase I and II are prepared in 100 mM sodium phosphate buffer, pH 7.4 containing 1 mg/ml of OVA to give an arginase stock solution at a final concentration of 100 ng/ml.
(§2) To each well of a 96-well microtiter plate is add 40 μl of enzyme, 10 μl of an inventive compound and 10 μl of enzyme substrate (L-arginine+ manganese sulfate). For wells that are used as positive controls, only the enzyme and its substrate are added, while wells used as negative controls contain only manganese sulfate.
(§3) After incubating the microtiter plate at 37° C. for 60 minutes, 150 μl of a urea reagent obtained by combining equal proportions (1:1) of reagents A and B is added to each well of the microtiter plate to stop the reaction. The urea reagent is made just before use by combining Reagent A (10 mM o-phthaldialdehyde, and 0.4% polyoxyethylene (23) lauryl ether (w/v) in 1.8 M sulfuric acid) with Reagent B (1.3 mM primaquine diphosphate, 0.4% polyoxyethylene (23) lauryl ether (w/v), 130 mM boric acid in 3.6 M sulfuric acid). After quenching the reaction mixture, the microtiter plate is allowed to stand for an additional 10 minutes at room temperature to allow color development. […] The normalized OD is then used to generate a dose-response curve by plotting the normalized OD values against log [concentration] and using regression analysis to compute the IC50 values.

[3] = molecular target: T2, arginase II (ARG II) (Homo sapiens, UniProt P78540); assay: Inhibition of arginase II, spectrophotometric urea assay at 530 nm
T2 sequence (P78540 23-354): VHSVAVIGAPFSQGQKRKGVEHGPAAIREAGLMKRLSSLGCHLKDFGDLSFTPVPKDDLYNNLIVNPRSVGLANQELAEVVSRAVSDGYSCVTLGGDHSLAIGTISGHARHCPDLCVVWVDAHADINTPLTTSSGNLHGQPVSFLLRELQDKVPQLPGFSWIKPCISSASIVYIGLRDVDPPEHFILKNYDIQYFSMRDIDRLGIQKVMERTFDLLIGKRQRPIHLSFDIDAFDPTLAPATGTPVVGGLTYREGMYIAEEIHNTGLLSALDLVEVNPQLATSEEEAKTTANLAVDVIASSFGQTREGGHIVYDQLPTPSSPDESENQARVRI
Description: as §1, §2, §3

[4] = molecular target: T3, human-Arginase-1 (Homo sapiens, UniProt P05089); assay: Urea production in CHOK cells stably transfected with human-Arginase-1; format: cell-based; conditions: IC50 class, 5 mM arginine, 24 hours, read-out: CHOK Cell
T3 construct: expressed in transfected cells; host or cells: CHOK cells
T3 sequence (P05089 1-322): T1 sequence (P05089 1-322)
Description: Table 3 also provides CHOK cell based IC50 values for illustrative arginase inhibitors. IC50 values were determined by measuring the production of urea in CHOK cells stably transfected with human-Arginase-1.
Briefly, CHOK cells were stably transfected with human-arginase-1. To determiner the IC50 values for compounds in accordance with the present invention, parental CHOK cells and arginase-1 stably transfected cells were plated in a 96 well plate. Cells were plated using 200 μl of complete growth medium and incubated overnight at 37° C.
Media from each of the wells containing cells was first removed and growth media supplemented with arginine at a concentration of 5 mM was added to each well. The test compounds were dissolved in PBS buffer to the desired concentration and added to appropriate wells. The plate was then incubated at 37° C. for 24 hours. After 24 hours the plates were spun down at 3000 RPM for 5 min and 50 μl of the media were transferred to a new plate.
An aqueous solution of o-phthaldehyde, Brij, sulfuric acid, primaquine diphosphate and boric acid was added to each well and the plate was incubated for 10-15 minutes. The urea concentration in each well was determined by measuring the optical density at 520-530 nanometers using a standard curve. The IC50 values were calculated by measuring urea production at various concentrations of the inventive arginase inhibitors after subtracting the value related to the concentration of urea in control wells.

[5] = test system: bacterial arginase; conditions: cited from earlier work
[6] = test system: murine chronic model; conditions: cited from earlier work
[7] = test system: spontaneously hypertensive animals; conditions: cited from earlier work

Structure (SMILES): NC(CCCCB(O)O)C(=O)O (stereo not drawn) [ABH, amino-6-boronohexanoic acid]
- form of EAE developed versus control animals [1]: much milder form of EAE

- IC50 [2]: 101 to 500 nM
- IC50 [3]: 101 to 500 nM
- IC50 [4]: 1000 to 25000 nM
Structure (SMILES): CCN(CC)CC[C@](N)(CCCCB(O)O)C(=O)O [Example 68, (R)-2-amino-6-borono-2-(2-(diethylamino)ethyl)hexanoic acid]

Structure (SMILES): NC(=NCCC[C@H](N)C(=O)O)NO [NOHA]
- CD3 expression on T-cells [5]: reestablished
- production of NO by macrophages [5]: enhanced

Structure (SMILES): N[C@@H](CSCCB(O)O)C(=O)O [S-(2-boronoethyl)-L-cysteine]
- methacholine induced responsiveness of the central airways [6]: attenuated

Structure (SMILES): N=C(NO)NCC[C@H](N)C(=O)O [nor-NOHA, N^ω-hydroxy-nor-L-arginine]
- blood pressure [7]: lowered
- vascular response of resistance vessels to blood flow and pressure [7]: improved
